# Legend:
# Human μ-opioid (MOP) = biological target: T1, Human μ-opioid (MOP) (Homo sapiens, UniProt P35372); assay: Radioligand binding, human μ-opioid (MOP) membranes, FlashPlate, [3H]-Naloxone; conditions: compound at 10 μM, [3H]-Naloxone
# T1 construct: purchased Perkin Elmer Biosignal
# Method in brief: (§1)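 Cloned human receptor membranes were coated onto FlashPlate wells and incubated with radioligand and compound (added from a 0.5 mM DMSO daughter plate) for 1 hour at room temperature in the dark. Scintillation counting gave percent inhibition, with DMSO defining total and reference ligand defining non-specific binding.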
# Human Melanocortin (MC3) = biological target: T2, Human Melanocortin (MC3) (Homo sapiens, UniProt P41968); assay: Radioligand binding, human melanocortin MC3 membranes, FlashPlate, [125I]-NDP-αMSH; conditions: compound at 10 μM, [125I]-NDP-αMSH
# T2 construct: purchased Perkin Elmer Biosignal
# T2 sequence (P41968 whole entry): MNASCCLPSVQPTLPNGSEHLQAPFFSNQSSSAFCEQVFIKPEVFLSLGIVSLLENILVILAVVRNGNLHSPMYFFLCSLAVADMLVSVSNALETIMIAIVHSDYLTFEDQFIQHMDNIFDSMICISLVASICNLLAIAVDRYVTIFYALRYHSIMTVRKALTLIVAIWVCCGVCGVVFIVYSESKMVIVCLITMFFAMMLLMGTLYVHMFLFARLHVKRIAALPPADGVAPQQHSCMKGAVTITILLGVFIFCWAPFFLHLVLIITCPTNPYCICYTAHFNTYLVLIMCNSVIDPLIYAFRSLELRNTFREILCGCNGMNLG
# Method in brief: as §1
# Human neurokinin (NK1) = biological target: T3, Human neurokinin (NK1) (Homo sapiens, UniProt P25103); assay: Radioligand binding, human neurokinin NK1 membranes, filtration, [125I]-Substance P; conditions: compound at 10 μM, [125I]-Substance P
# T3 construct: purchased Perkin Elmer Biosignal
# T3 sequence (P25103 whole entry): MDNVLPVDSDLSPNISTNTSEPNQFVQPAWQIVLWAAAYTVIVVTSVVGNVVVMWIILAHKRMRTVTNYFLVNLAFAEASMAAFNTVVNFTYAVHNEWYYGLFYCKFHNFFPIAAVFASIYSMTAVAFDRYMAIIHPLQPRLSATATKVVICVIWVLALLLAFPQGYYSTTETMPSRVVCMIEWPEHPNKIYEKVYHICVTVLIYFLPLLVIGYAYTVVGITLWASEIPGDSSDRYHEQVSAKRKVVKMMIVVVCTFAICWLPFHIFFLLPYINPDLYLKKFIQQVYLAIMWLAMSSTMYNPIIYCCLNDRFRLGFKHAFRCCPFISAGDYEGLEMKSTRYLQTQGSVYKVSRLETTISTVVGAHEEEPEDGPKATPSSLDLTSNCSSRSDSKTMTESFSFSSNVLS
# Method in brief: (§2)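 Percent inhibition of radioligand binding measured on recombinant human membranes: NK1 with [125I]-Substance P, KOP with [3H]-Diprenorphine. Incubation 1 h at room temperature, then harvest onto 0.3% PEI-soaked filters, cold Tris-HCl pH 7.4 washes and scintillation counting; non-specific binding from reference ligand wells.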
# Human Melanocortin (MC4) = biological target: T4, Human Melanocortin (MC4) (Homo sapiens, UniProt P32245); assay: Radioligand binding, human melanocortin MC4 membranes, FlashPlate, [125I]-NDP-αMSH; conditions: compound at 10 μM, [125I]-NDP-αMSH
# T4 construct: purchased Perkin Elmer Biosignal
# T4 sequence (P32245 whole entry): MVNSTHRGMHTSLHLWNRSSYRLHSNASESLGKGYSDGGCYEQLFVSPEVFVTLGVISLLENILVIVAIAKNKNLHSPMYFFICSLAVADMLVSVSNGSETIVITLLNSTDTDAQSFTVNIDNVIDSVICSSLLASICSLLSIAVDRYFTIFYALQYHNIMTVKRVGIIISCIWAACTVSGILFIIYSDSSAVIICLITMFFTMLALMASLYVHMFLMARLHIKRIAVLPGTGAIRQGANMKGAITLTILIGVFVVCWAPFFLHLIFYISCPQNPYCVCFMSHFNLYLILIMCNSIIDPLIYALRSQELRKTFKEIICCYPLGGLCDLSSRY
# Method in brief: as §1
# [1] = biological target: T5, Human neuropeptide Y (NPY-Y1) (Homo sapiens, UniProt P25929); assay: Radioligand binding, human neuropeptide Y NPY-Y1 membranes, FlashPlate, [125I]-PYY; conditions: compound at 10 μM, [125I]-PYY
# T5 construct: purchased Perkin Elmer Biosignal
# T5 sequence (P25929 1-384): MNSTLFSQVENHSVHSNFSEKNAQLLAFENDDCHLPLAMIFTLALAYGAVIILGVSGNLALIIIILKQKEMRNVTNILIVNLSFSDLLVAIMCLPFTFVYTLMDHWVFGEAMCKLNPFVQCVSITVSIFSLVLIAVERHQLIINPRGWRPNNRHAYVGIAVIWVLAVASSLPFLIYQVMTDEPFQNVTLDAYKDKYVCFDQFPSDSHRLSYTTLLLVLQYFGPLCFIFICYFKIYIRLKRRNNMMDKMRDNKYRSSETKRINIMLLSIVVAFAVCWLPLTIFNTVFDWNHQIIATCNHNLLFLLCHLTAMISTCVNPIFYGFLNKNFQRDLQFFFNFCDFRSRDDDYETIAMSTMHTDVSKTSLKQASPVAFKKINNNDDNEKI
# Method in brief: as §1
# Human κ-Opioid (KOP) = biological target: T6, Human κ-Opioid (KOP) (Homo sapiens, UniProt P41145); assay: Radioligand binding, human κ-opioid (KOP) membranes, filtration, [3H]-Diprenorphine; conditions: compound at 10 μM, [3H]-Diprenorphine
# T6 construct: purchased Perkin Elmer Biosignal
# T6 sequence (P41145 whole entry): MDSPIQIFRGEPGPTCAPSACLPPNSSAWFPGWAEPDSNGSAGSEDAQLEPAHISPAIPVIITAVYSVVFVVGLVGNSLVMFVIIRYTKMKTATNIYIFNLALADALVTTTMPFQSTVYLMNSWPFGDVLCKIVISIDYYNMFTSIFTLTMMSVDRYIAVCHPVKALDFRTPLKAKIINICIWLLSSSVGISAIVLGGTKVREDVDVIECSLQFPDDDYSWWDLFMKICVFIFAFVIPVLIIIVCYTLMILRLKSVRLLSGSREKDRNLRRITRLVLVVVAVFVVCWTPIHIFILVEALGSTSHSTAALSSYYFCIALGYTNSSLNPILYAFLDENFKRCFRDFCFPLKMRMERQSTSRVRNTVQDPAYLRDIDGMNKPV
# Method in brief: as §2
# Human melanocortin (MC5) = biological target: T7, Human melanocortin (MC5) (Homo sapiens, UniProt P33032); assay: Radioligand binding, human melanocortin MC5 membranes, FlashPlate, [125I]-NDP-αMSH; conditions: compound at 10 μM, [125I]-NDP-αMSH
# T7 construct: purchased Perkin Elmer Biosignal
# T7 sequence (P33032 whole entry): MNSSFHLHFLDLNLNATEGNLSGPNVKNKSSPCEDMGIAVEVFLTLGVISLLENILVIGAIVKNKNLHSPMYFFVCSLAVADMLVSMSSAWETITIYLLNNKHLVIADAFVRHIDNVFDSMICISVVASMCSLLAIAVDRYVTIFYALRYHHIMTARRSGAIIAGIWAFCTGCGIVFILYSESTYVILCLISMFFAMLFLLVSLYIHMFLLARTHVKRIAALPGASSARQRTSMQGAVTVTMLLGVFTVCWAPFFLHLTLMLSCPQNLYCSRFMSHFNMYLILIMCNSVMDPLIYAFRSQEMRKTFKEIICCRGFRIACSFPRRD
# Method in brief: as §1
# Human opioid (ORL1) = biological target: T8, Human opioid (ORL1) (Homo sapiens, UniProt P41146); assay: Radioligand binding, human opioid ORL1 membranes, FlashPlate, [125I]-Nociceptin; conditions: compound at 10 μM, [125I]-Nociceptin
# T8 construct: purchased Perkin Elmer Biosignal
# T8 sequence (P41146 whole entry): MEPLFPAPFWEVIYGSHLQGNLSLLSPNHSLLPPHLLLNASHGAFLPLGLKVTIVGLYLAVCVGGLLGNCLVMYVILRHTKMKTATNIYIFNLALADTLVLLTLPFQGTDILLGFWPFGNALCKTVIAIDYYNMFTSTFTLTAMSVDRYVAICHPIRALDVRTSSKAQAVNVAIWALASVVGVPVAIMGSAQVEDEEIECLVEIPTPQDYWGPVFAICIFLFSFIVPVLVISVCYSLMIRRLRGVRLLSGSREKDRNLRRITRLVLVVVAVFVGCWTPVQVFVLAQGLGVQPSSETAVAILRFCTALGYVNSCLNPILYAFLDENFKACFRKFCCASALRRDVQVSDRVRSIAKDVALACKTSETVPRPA
# Method in brief: as §1
# Mouse urotensin (mUR2) = biological target: T9, Mouse urotensin (mUR2) (Mus musculus, UniProt Q8VIH9); assay: Radioligand binding, mouse urotensin mUR2 membranes, FlashPlate, [125I]-Urotensin II; conditions: compound at 10 μM, [125I]-Urotensin II
# T9 construct: purchased Perkin Elmer Biosignal
# T9 sequence (Q8VIH9 1-385): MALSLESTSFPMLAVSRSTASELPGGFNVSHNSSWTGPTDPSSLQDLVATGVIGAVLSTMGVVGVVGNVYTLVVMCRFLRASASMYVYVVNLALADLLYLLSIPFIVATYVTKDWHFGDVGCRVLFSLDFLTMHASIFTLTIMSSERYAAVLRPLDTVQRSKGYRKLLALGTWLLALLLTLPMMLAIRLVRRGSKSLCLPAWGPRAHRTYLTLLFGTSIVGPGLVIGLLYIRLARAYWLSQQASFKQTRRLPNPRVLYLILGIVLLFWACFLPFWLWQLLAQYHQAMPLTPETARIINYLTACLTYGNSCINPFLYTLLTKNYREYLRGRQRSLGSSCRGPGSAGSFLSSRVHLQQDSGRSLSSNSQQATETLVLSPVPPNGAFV
# Method in brief: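 Cloned mouse urotensin (mUR2) receptor membranes from Perkin Elmer Biosignal were immobilized in FlashPlate microplates using a proprietary coating. Each well got 19.5 μl buffer, then 0.5 μl of DMSO, reference ligand, or compound. Adding 5 μl of [125I]-Urotensin II, diluted to 5× final concentration in binding buffer, started binding. Plates were sealed with TopSeal-A and incubated 1 hour at room temperature in the dark. Wells were counted for 30 seconds each on a TopCount after a 60-second delay, and percentage inhibition was calculated.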
# [2] = biological target: T10, Human melanin-concentrating hormone (MCH1) (Homo sapiens, UniProt Q99705); assay: Radioligand binding, human melanin-concentrating hormone MCH1 membranes, FlashPlate, [125I]-S36057; conditions: compound at 10 μM
# T10 construct: purchased Perkin Elmer Biosignal
# T10 sequence (Q99705 whole entry): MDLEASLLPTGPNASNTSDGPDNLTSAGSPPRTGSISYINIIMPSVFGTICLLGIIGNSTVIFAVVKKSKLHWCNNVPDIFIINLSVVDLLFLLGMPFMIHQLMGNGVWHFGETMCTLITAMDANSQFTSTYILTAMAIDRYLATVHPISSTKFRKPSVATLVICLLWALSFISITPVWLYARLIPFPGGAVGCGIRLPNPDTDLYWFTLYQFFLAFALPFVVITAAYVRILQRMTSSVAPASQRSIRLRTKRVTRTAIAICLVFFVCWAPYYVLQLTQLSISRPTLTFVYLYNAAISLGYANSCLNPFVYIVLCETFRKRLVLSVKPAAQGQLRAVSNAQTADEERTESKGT
# Method in brief: as §1
# Human δ-opioid (DOP) = biological target: T11, Human δ-opioid (DOP) (Homo sapiens, UniProt P41143); assay: Radioligand binding, human δ-opioid (DOP) membranes, FlashPlate, [3H]-Bremazocine; conditions: compound at 10 μM, [3H]-Bremazocine
# T11 construct: purchased Perkin Elmer Biosignal
# T11 sequence (P41143 whole entry): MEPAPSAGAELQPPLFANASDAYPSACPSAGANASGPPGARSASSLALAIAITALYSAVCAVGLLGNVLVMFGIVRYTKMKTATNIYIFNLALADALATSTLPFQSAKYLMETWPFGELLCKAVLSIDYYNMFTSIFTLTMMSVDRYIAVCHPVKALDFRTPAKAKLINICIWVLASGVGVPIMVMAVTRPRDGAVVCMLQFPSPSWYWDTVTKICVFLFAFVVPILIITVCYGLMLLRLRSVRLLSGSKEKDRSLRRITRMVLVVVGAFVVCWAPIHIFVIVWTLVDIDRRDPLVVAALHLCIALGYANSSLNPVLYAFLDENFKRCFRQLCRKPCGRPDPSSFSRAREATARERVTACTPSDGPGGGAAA
# Method in brief: as §1
# T1 sequence (P35372 whole entry): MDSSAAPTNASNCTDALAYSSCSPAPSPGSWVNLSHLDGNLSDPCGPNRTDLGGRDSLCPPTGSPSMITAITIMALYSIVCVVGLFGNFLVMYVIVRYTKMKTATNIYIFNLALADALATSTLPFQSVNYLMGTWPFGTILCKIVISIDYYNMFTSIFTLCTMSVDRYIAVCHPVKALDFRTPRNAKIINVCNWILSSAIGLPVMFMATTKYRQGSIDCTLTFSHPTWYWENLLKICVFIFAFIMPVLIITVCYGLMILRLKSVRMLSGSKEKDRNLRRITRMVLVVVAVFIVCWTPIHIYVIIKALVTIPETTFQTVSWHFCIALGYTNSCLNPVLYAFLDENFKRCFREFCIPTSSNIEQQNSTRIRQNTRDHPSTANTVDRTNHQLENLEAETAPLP
compound,measurement,setting,value
"NCCCC(=O)NC1C(OCc2ccc(Cl)cc2)OC(COCc2ccccc2)C(O)C1OCc1ccc(Cl)cc1 (single isomer, unassigned) [compound 492]","A7: inhibition of radioligand binding, human μ-opioid (MOP)",Human μ-opioid (MOP),− (“−” indicates less than 50% inhibition at 10 μM)
same,"A3: inhibition of radioligand binding, human melanocortin (MC3)",Human Melanocortin (MC3),− (“−” indicates less than 50% inhibition at 10 μM)
same,"A8: inhibition of radioligand binding, human neurokinin (NK1)",Human neurokinin (NK1),+ (“+” indicates greater than 50% inhibition at 10 μM)
same,"A4: inhibition of radioligand binding, human melanocortin (MC4)",Human Melanocortin (MC4); 10 µM,+ (“+” indicates greater than 50% inhibition at 10 μM)
same,"A9: inhibition of radioligand binding, human neuropeptide Y (NPY-Y1)",[1],− (“−” indicates less than 50% inhibition at 10 μM)
same,"A2: inhibition of radioligand binding, human κ-opioid (KOP)",Human κ-Opioid (KOP),− (“−” indicates less than 50% inhibition at 10 μM)
same,"A5: inhibition of radioligand binding, human melanocortin (MC5)",Human melanocortin (MC5); 10 µM,+ (“+” indicates greater than 50% inhibition at 10 μM)
same,"A10: inhibition of radioligand binding, human opioid (ORL1)",Human opioid (ORL1),+ (“+” indicates greater than 50% inhibition at 10 μM)
same,"A11: inhibition of radioligand binding, mouse urotensin (mUR2)",Mouse urotensin (mUR2),− (“−” indicates less than 50% inhibition at 10 μM)
same,"A6: inhibition of radioligand binding, human melanin-concentrating hormone (MCH1)","[2]; [125I]-S36057, 10 µM",+ (“+” indicates greater than 50% inhibition at 10 μM)
same,"A1: inhibition of radioligand binding, human δ-opioid (DOP)",Human δ-opioid (DOP),− (“−” indicates less than 50% inhibition at 10 μM)
COCC1OC(OCc2ccc(Cl)cc2)C(NC(=O)CCCNC(=N)N)C(OCc2ccc3ccccc3c2)C1O (stereo not shown) [compound 213],A7: inhibition of radioligand binding,Human μ-opioid (MOP); FlashPlate,− (“−” indicates less than 50% inhibition at 10 μM)
same,A3: inhibition of radioligand binding,Human Melanocortin (MC3); FlashPlate,− (“−” indicates less than 50% inhibition at 10 μM)
same,A8: inhibition of radioligand binding,Human neurokinin (NK1); filtration,+ (“+” indicates greater than 50% inhibition at 10 μM)
same,A4: inhibition of radioligand binding,Human Melanocortin (MC4); FlashPlate,+ (“+” indicates greater than 50% inhibition at 10 μM)
same,A9: inhibition of radioligand binding,[1]; FlashPlate,− (“−” indicates less than 50% inhibition at 10 μM)
same,A2: inhibition of radioligand binding,Human κ-Opioid (KOP); filtration,+ (“+” indicates greater than 50% inhibition at 10 μM)
same,A5: inhibition of radioligand binding,Human melanocortin (MC5); FlashPlate,+ (“+” indicates greater than 50% inhibition at 10 μM)
same,A10: inhibition of radioligand binding,Human opioid (ORL1); FlashPlate,+ (“+” indicates greater than 50% inhibition at 10 μM)
same,A11: inhibition of radioligand binding,Mouse urotensin (mUR2); FlashPlate,− (“−” indicates less than 50% inhibition at 10 μM)
same,A6: inhibition of radioligand binding,"[2]; [125I]-S36057, FlashPlate",+ (“+” indicates greater than 50% inhibition at 10 μM)
same,A1: inhibition of radioligand binding,Human δ-opioid (DOP); FlashPlate,− (“−” indicates less than 50% inhibition at 10 μM)
CSC1OC(COCc2ccccc2)C(O)C(OCc2ccc3ccccc3c2)C1NC(=O)CN (stereo not shown) [compound 301],"A7: inhibition of radioligand binding, human μ-opioid (MOP)",Human μ-opioid (MOP),− (“−” indicates less than 50% inhibition at 10 μM)
same,"A3: inhibition of radioligand binding, human melanocortin (MC3)",Human Melanocortin (MC3),− (“−” indicates less than 50% inhibition at 10 μM)
same,"A8: inhibition of radioligand binding, human neurokinin (NK1)",Human neurokinin (NK1),+ (“+” indicates greater than 50% inhibition at 10 μM)
same,"A4: inhibition of radioligand binding, human melanocortin (MC4)",Human Melanocortin (MC4),− (“−” indicates less than 50% inhibition at 10 μM)
same,"A9: inhibition of radioligand binding, human neuropeptide Y (NPY-Y1)",[1],− (“−” indicates less than 50% inhibition at 10 μM)
same,"A2: inhibition of radioligand binding, human κ-opioid (KOP)",Human κ-Opioid (KOP),− (“−” indicates less than 50% inhibition at 10 μM)
same,"A5: inhibition of radioligand binding, human melanocortin (MC5)",Human melanocortin (MC5),− (“−” indicates less than 50% inhibition at 10 μM)
same,"A10: inhibition of radioligand binding, human opioid (ORL1)",Human opioid (ORL1),− (“−” indicates less than 50% inhibition at 10 μM)
same,"A11: inhibition of radioligand binding, mouse urotensin (mUR2)",Mouse urotensin (mUR2),− (“−” indicates less than 50% inhibition at 10 μM)
same,"A6: inhibition of radioligand binding, human melanin-concentrating hormone (MCH1)",[2]; [125I]-S36057,− (“−” indicates less than 50% inhibition at 10 μM)
same,"A1: inhibition of radioligand binding, human δ-opioid (DOP)",Human δ-opioid (DOP),− (“−” indicates less than 50% inhibition at 10 μM)
COCC1OC(OCc2ccccc2)C(NC(=O)CCN)C(OCc2ccc(-c3ccccc3)cc2)C1O (stereo not shown) [compound 184],"A7 radioligand binding, percentage inhibition",Human μ-opioid (MOP),− (“−” indicates less than 50% inhibition at 10 μM)
same,"A3 radioligand binding, percentage inhibition",Human Melanocortin (MC3),− (“−” indicates less than 50% inhibition at 10 μM)
same,"A8 radioligand binding, percentage inhibition",Human neurokinin (NK1),+ (“+” indicates greater than 50% inhibition at 10 μM)
same,"A4 radioligand binding, percentage inhibition",Human Melanocortin (MC4),− (“−” indicates less than 50% inhibition at 10 μM)
same,"A9 radioligand binding, percentage inhibition",[1],− (“−” indicates less than 50% inhibition at 10 μM)
same,"A2 radioligand binding, percentage inhibition",Human κ-Opioid (KOP),− (“−” indicates less than 50% inhibition at 10 μM)
same,"A5 radioligand binding, percentage inhibition",Human melanocortin (MC5),+ (“+” indicates greater than 50% inhibition at 10 μM)
same,"A10 radioligand binding, percentage inhibition",Human opioid (ORL1),− (“−” indicates less than 50% inhibition at 10 μM)
same,"A11 radioligand binding, percentage inhibition",Mouse urotensin (mUR2),− (“−” indicates less than 50% inhibition at 10 μM)
same,"A6 radioligand binding, percentage inhibition",[2]; [125I]-S36057,− (“−” indicates less than 50% inhibition at 10 μM)
same,"A1 radioligand binding, percentage inhibition",Human δ-opioid (DOP),− (“−” indicates less than 50% inhibition at 10 μM)
"NCCCC(=O)NC1C(OCc2ccc3ccccc3c2)OC(COCc2ccc3ccccc3c2)C(O)C1OCc1ccc(Cl)cc1 (single isomer, unassigned) [compound 454]",A7: inhibition of radioligand binding,"Human μ-opioid (MOP); human MOP membranes, 10 µM",+ (“+” indicates greater than 50% inhibition at 10 μM)
same,A3: inhibition of radioligand binding,Human Melanocortin (MC3); human MC3 membranes,+ (“+” indicates greater than 50% inhibition at 10 μM)
same,A8: inhibition of radioligand binding,Human neurokinin (NK1); human NK1 membranes,+ (“+” indicates greater than 50% inhibition at 10 μM)
same,A4: inhibition of radioligand binding,Human Melanocortin (MC4); human MC4 membranes,+ (“+” indicates greater than 50% inhibition at 10 μM)
same,A9: inhibition of radioligand binding,[1]; human NPY-Y1 membranes,− (“−” indicates less than 50% inhibition at 10 μM)
same,A2: inhibition of radioligand binding,"Human κ-Opioid (KOP); human KOP membranes, 10 µM",− (“−” indicates less than 50% inhibition at 10 μM)
same,A5: inhibition of radioligand binding,Human melanocortin (MC5); human MC5 membranes,+ (“+” indicates greater than 50% inhibition at 10 μM)
same,A10: inhibition of radioligand binding,"Human opioid (ORL1); human ORL1 membranes, 10 µM",+ (“+” indicates greater than 50% inhibition at 10 μM)
same,A11: inhibition of radioligand binding,Mouse urotensin (mUR2); mouse mUR2 membranes,− (“−” indicates less than 50% inhibition at 10 μM)
same,A6: inhibition of radioligand binding,"[2]; [125I]-S36057, human MCH1 membranes",+ (“+” indicates greater than 50% inhibition at 10 μM)
same,A1: inhibition of radioligand binding,Human δ-opioid (DOP); human DOP membranes,− (“−” indicates less than 50% inhibition at 10 μM)

# Reference: patent publication US20080009418A1, “Selective Inhibitors” (Alchemia LTD., priority 2004, published 2008)
